Laboratory results from ChEMBL document CHEMBL1201862, “PubChem BioAssay data set” (2004).
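Step 1: Grow cells in 96-well plates. Step 2: Expose to compound for 48 hours at 5 concentrations. Step 3: Interpolate endpoints linearly; if unreached, use highest concentration. GI50 = concentration required for 50% inhibition of growth.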 Activity calls are given as the source filed them. No stated cut-off is given here; in the data, active = GI50 up to about 1.1 µM and inactive = higher.

Key:
Assay in all cases: NCI tumour cell line growth inhibition, 48 h
[1] = system: MDA-MB-231
[2] = system: NCI-H522
[3] = system: OVCAR-8
[4] = system: BT-549
[5] = system: IGROV-1
[6] = system: A549
[7] = system: RXF 393
[8] = system: SK-MEL-28
[9] = system: OVCAR-5
[10] = system: HT-29
[11] = system: PC-3
[12] = system: NCI-H460
[13] = system: CCRF-CEM
[14] = system: OVCAR-4
[15] = system: OVCAR-3
[16] = system: LOX IMVI
[17] = system: SNB-75
[18] = system: SF-539
[19] = system: SN12C
[20] = system: CAKI-1

| SMILES | GI50 [1] | GI50 [2] | GI50 [3] | GI50 [4] | GI50 [5] | GI50 [6] | GI50 [7] | GI50 [8] | GI50 [9] | GI50 [10] | GI50 [11] | GI50 [12] | GI50 [13] | GI50 [14] | GI50 [15] | GI50 [16] | GI50 [17] | GI50 [18] | GI50 [19] | GI50 [20] |
| --- | --- | --- | --- | --- | --- | --- | --- | --- | --- | --- | --- | --- | --- | --- | --- | --- | --- | --- | --- | --- |
| O=c1[nH]nc(-c2ccccc2)n1/N=C/c1cccc([N+](=O)[O-])c1 | > 100 µM (inactive) | 8.15 µM (inactive) | 93.5 µM (inactive) | > 100 µM (inactive) | > 100 µM (inactive) | > 100 µM (inactive) | 49.8 µM (inactive) | > 100 µM (inactive) | > 100 µM (inactive) | > 100 µM (inactive) | > 100 µM (inactive) | 91.6 µM (inactive) | > 100 µM (inactive) | > 100 µM (inactive) | > 100 µM (inactive) | > 100 µM (inactive) | > 100 µM (inactive) | 30.1 µM (inactive) | > 100 µM (inactive) | > 100 µM (inactive) |
| O=C(O)c1ccc(NC(c2ccccc2)c2ccc3cccnc3c2O)cc1 (stereo not given) | 10.8 µM (inactive) | 4.06 µM (inactive) | 3.85 µM (inactive) | 10 µM (inactive) | 16.5 µM (inactive) | 5.94 µM (inactive) | 9.12 µM (inactive) | 11.2 µM (inactive) | 16.8 µM (inactive) | 5.15 µM (inactive) | 9.57 µM (inactive) | 4.09 µM (inactive) | 1.72 µM (inactive) | 4.63 µM (inactive) | 2.99 µM (inactive) | 7.8 µM (inactive) | 11.6 µM (inactive) | 5.66 µM (inactive) | 6.87 µM (inactive) | 7.83 µM (inactive) |
| COC(=O)c1ccccc1NC(=O)C(=O)CC(=O)c1ccccc1NC1=CC(=O)C(=O)c2ccccc21 | 3.4 µM (inactive) | 5.22 µM (inactive) | 7.01 µM (inactive) | 15.2 µM (inactive) | 13.2 µM (inactive) | 16.3 µM (inactive) | 15.6 µM (inactive) | 13.1 µM (inactive) | 29.2 µM (inactive) | 44.5 µM (inactive) | 10.9 µM (inactive) | 19.7 µM (inactive) | 3.17 µM (inactive) | 7.91 µM (inactive) | 1.78 µM (inactive) | 1.68 µM (inactive) | 17.5 µM (inactive) | 18.6 µM (inactive) | 3.94 µM (inactive) | 23.8 µM (inactive) |
| O=S(=O)(SC1=NCCN1)c1ccc2ccccc2c1 | 17.2 µM (inactive) | 17.4 µM (inactive) | 20.7 µM (inactive) | 24.5 µM (inactive) | 31 µM (inactive) | 26.8 µM (inactive) | 24.3 µM (inactive) | 34.8 µM (inactive) | 18.8 µM (inactive) | 20 µM (inactive) | 30.7 µM (inactive) | 21.6 µM (inactive) | 21 µM (inactive) | 52.4 µM (inactive) | 27.5 µM (inactive) | 31.4 µM (inactive) | 25.2 µM (inactive) | 23.8 µM (inactive) | 24.4 µM (inactive) | 95.1 µM (inactive) |
| CCOC(=O)C(NC(=O)OCc1ccccc1)C(=O)O (stereo not given) | > 100 µM (inactive) | > 100 µM (inactive) | > 100 µM (inactive) | > 100 µM (inactive) | > 100 µM (inactive) | > 100 µM (inactive) | > 100 µM (inactive) | > 100 µM (inactive) | > 100 µM (inactive) | > 100 µM (inactive) | > 100 µM (inactive) | > 100 µM (inactive) | > 100 µM (inactive) | > 100 µM (inactive) | > 100 µM (inactive) | > 100 µM (inactive) | > 100 µM (inactive) | > 100 µM (inactive) | > 100 µM (inactive) | > 100 µM (inactive) |
| Cc1ccc(NC(=O)CSc2nc(C)nc3c2sc(=S)n3-c2ccccc2)cc1 | 6.3 µM (inactive) | > 10 µM (inactive) | 6.76 µM (inactive) | 4.09 µM (inactive) | > 10 µM (inactive) | > 10 µM (inactive) | 1.79 µM (inactive) | > 10 µM (inactive) | > 10 µM (inactive) | 7.36 µM (inactive) | > 10 µM (inactive) | 5.48 µM (inactive) | 9.23 µM (inactive) | 2.2 µM (inactive) | 5.37 µM (inactive) | > 10 µM (inactive) | 2.32 µM (inactive) | 3.01 µM (inactive) | 6.49 µM (inactive) | > 10 µM (inactive) |
| CC1CC2CCCC(=O)C2=C(O)O1 (stereo not given) | > 100 µM (inactive) | > 100 µM (inactive) | > 100 µM (inactive) | 81.5 µM (inactive) | > 100 µM (inactive) | > 100 µM (inactive) | > 100 µM (inactive) | > 100 µM (inactive) | > 100 µM (inactive) | > 100 µM (inactive) | > 100 µM (inactive) | > 100 µM (inactive) | > 100 µM (inactive) | > 100 µM (inactive) | > 100 µM (inactive) | > 100 µM (inactive) | > 100 µM (inactive) | > 100 µM (inactive) | > 100 µM (inactive) | > 100 µM (inactive) |
| NC(=O)N/N=C(/CC1C(=O)Oc2ccccc21)c1ccccc1O (stereo not given) | > 100 µM (inactive) | > 100 µM (inactive) | 28.6 µM (inactive) | 24.2 µM (inactive) | 36.6 µM (inactive) | > 100 µM (inactive) | 29.6 µM (inactive) | 48.3 µM (inactive) | > 100 µM (inactive) | 69 µM (inactive) | > 100 µM (inactive) | 39.4 µM (inactive) | 22.4 µM (inactive) | 41.7 µM (inactive) | 78.2 µM (inactive) | 20.4 µM (inactive) | 41.3 µM (inactive) | 25.6 µM (inactive) | 83.6 µM (inactive) | 49 µM (inactive) |
| C=C(CO)[C@H]1CC/C(C)=C/CC/C(C)=C/C/C=C(\C)[C@H](O)C1 | 21.6 µM (inactive) | 16.9 µM (inactive) | 17.8 µM (inactive) | 23.1 µM (inactive) | 17.8 µM (inactive) | 42 µM (inactive) | 19.9 µM (inactive) | 16 µM (inactive) | 47.1 µM (inactive) | 18.5 µM (inactive) | 41.8 µM (inactive) | 22.1 µM (inactive) | > 100 µM (inactive) | 46.7 µM (inactive) | 33.7 µM (inactive) | 27.5 µM (inactive) | 31 µM (inactive) | 23.5 µM (inactive) | 33.3 µM (inactive) | 31.3 µM (inactive) |
| COc1ccc(NC(=S)Nc2cc(C)cc(C)n2)cc1 | > 100 µM (inactive) | > 100 µM (inactive) | > 100 µM (inactive) | > 100 µM (inactive) | > 100 µM (inactive) | > 100 µM (inactive) | > 100 µM (inactive) | > 100 µM (inactive) | > 100 µM (inactive) | > 100 µM (inactive) | > 100 µM (inactive) | > 100 µM (inactive) | > 100 µM (inactive) | > 100 µM (inactive) | > 100 µM (inactive) | > 100 µM (inactive) | > 100 µM (inactive) | > 100 µM (inactive) | > 100 µM (inactive) | > 100 µM (inactive) |
| O=C1N/C(=N/N=C\c2ccccc2)N/C1=C/c1ccccc1 | 47 µM (inactive) | 23.1 µM (inactive) | 26.2 µM (inactive) | 22.9 µM (inactive) | 24.8 µM (inactive) | 35.7 µM (inactive) | 30 µM (inactive) | 85.1 µM (inactive) | 21.6 µM (inactive) | 24.9 µM (inactive) | 24.9 µM (inactive) | 20.6 µM (inactive) | 23.2 µM (inactive) | 15.2 µM (inactive) | 32.2 µM (inactive) | 35.9 µM (inactive) | 25.6 µM (inactive) | 20.5 µM (inactive) | 39.7 µM (inactive) | 27.8 µM (inactive) |
| COc1c(OC)c(O)c2c(=O)c(OC)c(-c3ccc4c(c3)OCO4)oc2c1O | > 100 µM (inactive) | > 100 µM (inactive) | > 100 µM (inactive) | > 100 µM (inactive) | > 100 µM (inactive) | > 100 µM (inactive) | 91.4 µM (inactive) | > 100 µM (inactive) | > 100 µM (inactive) | 36.1 µM (inactive) | > 100 µM (inactive) | > 100 µM (inactive) | 55.5 µM (inactive) | > 100 µM (inactive) | > 100 µM (inactive) | > 100 µM (inactive) | > 100 µM (inactive) | > 100 µM (inactive) | > 100 µM (inactive) | > 100 µM (inactive) |
| CN(C)C(=O)Oc1ccc(-c2cn3cc(NC(=O)c4ccccc4)ccc3n2)cc1 | > 100 µM (inactive) | 26.4 µM (inactive) | > 100 µM (inactive) | 80.4 µM (inactive) | 70.8 µM (inactive) | 83.4 µM (inactive) | > 100 µM (inactive) | > 100 µM (inactive) | > 100 µM (inactive) | 87.3 µM (inactive) | > 100 µM (inactive) | 73.3 µM (inactive) | 99.5 µM (inactive) | 55 µM (inactive) | 53.7 µM (inactive) | 53 µM (inactive) | 86.1 µM (inactive) | > 100 µM (inactive) | > 100 µM (inactive) | > 100 µM (inactive) |
| CCOCC(=O)N[C@H]1CCc2cc(OC)c(OC)c(OC)c2-c2ccc(OC)c(=O)cc21 | < 0.0145 µM (active) | 0.0143 µM (active) | 0.0194 µM (active) | < 0.0321 µM (active) | 0.0241 µM (active) | 0.0211 µM (active) | 0.0811 µM (active) | 2.23 µM (inactive) | 0.741 µM (active) | 0.0146 µM (active) | < 0.0154 µM (active) | 0.0165 µM (active) | 0.0444 µM (active) | 3.62 µM (inactive) | 0.0148 µM (active) | < 0.0125 µM (active) | < 0.0191 µM (active) | 0.0148 µM (active) | 0.0239 µM (active) | 0.0577 µM (active) |
